Results reported in patent US20140155397A1, “EMT SIGNATURES AND PREDICTIVE MARKERS AND METHOD OF USING THE SAME” (Board of Regents, priority 2011, published 2014).

Key:
AXL = target: T1, AXL (Homo sapiens, UniProt P30530); assay: Inhibition of purified recombinant AXL kinase; format: biochemical
T1 sequence (P30530 26-894): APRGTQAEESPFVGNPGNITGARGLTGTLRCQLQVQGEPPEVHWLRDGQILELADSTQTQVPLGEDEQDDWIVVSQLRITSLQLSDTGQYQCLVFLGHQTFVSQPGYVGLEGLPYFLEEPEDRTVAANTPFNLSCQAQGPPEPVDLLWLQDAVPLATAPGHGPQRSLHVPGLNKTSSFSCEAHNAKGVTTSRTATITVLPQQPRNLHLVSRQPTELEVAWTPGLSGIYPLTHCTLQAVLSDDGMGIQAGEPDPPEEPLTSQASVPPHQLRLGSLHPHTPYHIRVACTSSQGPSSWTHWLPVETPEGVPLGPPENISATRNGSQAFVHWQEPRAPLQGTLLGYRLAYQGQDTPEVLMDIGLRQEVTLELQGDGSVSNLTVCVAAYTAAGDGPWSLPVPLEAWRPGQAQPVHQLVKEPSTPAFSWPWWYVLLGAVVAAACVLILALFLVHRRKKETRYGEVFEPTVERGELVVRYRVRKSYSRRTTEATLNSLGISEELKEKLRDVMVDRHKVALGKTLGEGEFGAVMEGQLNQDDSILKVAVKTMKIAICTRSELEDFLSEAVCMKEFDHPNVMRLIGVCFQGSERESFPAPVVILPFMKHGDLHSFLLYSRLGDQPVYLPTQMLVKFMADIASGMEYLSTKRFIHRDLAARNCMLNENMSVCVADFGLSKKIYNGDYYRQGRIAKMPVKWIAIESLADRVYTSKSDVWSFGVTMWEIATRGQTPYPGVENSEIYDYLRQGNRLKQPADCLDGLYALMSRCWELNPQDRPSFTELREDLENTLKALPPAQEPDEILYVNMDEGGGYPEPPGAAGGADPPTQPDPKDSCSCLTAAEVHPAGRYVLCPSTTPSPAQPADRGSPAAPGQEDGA
Description: Purified recombinant AXL kinase was used to screen a library of structures with appropriate drug-like scaffolds to identify potential inhibitors. Hits from the screen were confirmed and r analyzed by selection criteria including Lipinski rules. One pyrrolopyrimidine-based compound was selected for structure-activity relationship efforts. Optimization of this scaffold and subsequent evaluation led to the generation of compound SG1-7079 as the lead candidate inhibitor (FIG. 10). […] SGI-7079 was screened against a panel of protein kinases to determine both selectivity and biochemical potency.

NSCLC cell lines = assay: Drug sensitivity (growth inhibition, MTS assay) of epithelial versus mesenchymal NSCLC cell lines; format: cell-based
Description: Average values were used for analysis as described. […] Chou T. C., et al., Quantitative Analysis of Dose-Effect Relationships: The Combined Effects of Multiple Drugs or Enzyme Inhibitors. Adv Enzyme Regul.
The EMT signature was derived in 54 DNA fingerprinted NSCLC cell lines profiled on Affymetrix U133A, B, and Plus2.0 arrays and tested on the Illumina WGv2 and WGv3 platforms and in an independent set of head and neck cancer lines (HNC). E-cadherin and other protein levels were quantified by reverse phase protein array and correlated with the first principal component of the EMT signature. IC50s were determined for NSCLC cell lines by MTS assay. Response to erlotinib was evaluated in patients treated in the BATTLE clinical trial using eight-week disease […] and progression free survival.

Ki (AXL): 5.7 nM
SMILES: Cc1c[nH]c2nc(Nc3ccc(N4CCN(C)CC4)c(F)c3)nc(-c3cccc(CC#N)c3)c12 [SGI-7079]
Sensitivity of mesenchymal cells (NSCLC cell lines; SGI-7079 versus erlotinib, p<0.001 by Wilcoxon test): relatively sensitive
Fold more sensitive, mesenchymal versus epithelial cells (NSCLC cell lines; p-value 0.17, not statistically significant): 1.3 fold
